Measurements: patent US10213422B2, “Compositions and methods of inhibiting histone deacetylases” (YALE UNIVERSITY, priority 2014, dated 2019)

Experiments:
[1] = test system: MEF2 transcriptional targets (Cx37, Cx40, KLF2); assay: MEF2 target expression in PAH PAECs (RT-PCR); assay type: cell-based, human; conditions: 1 μM for 24 h, vs. control/DMSO
Procedure: (§1) PAECs were isolated from normal and PAH explanted donor lungs, as described previously. Additional control PAECs were obtained from Lonza. PAECs from eleven control subjects, seven subjects with IPAH and three subjects with FPAH were studied. In brief, human pulmonary arteries were dissected from the lungs to the distal small arterioles, and PAECs were harvested from the isolated pulmonary arterial tree. PAECs were grown in EBM-2 basal medium supplemented with EGM-2 (Lonza) on fibronectin-coated plates. Cells were passaged at 70-80% confluency, and primary cultures of passages 3 to 7 were used in experiments. All apelin stimulations were done using apelin-13 peptide at 1 μM (Sigma). TSA (Sigma), MC1568 (Selleck Chemicals and DC Chemicals), TMP269 (DC Chemicals), and Tasquinimod (DC Chemicals) were dissolved in DMSO (Sigma) and used at the indicated doses. Total RNA was extracted with an RNA isolation kit, (miRNeasy RNA, Qiagen). Purified RNA was reverse transcribed with a cDNA synthesis kit (iScript cDNA Synthesis Kit, Bio-Rad). RT-PCR was performed with TaqMan probes for both genes and miRNAs (Applied Biosystems). All miRNA data were normalized to the internal control small RNAs RNU19 and HY3 for human samples and U87 for rat samples. For the mRNA samples, ribosomal 18S was used as an internal control. […]

FGF2 [2] = assay: FGF2 expression in PAH PAECs; assay type: cell-based, human; conditions: 1 μM for 24 h
Procedure: as §1

PAH PAECs [3] = assay: PAH PAEC proliferation assay; assay type: cell-based, human; conditions: PAH PAECs vs. DMSO
Procedure: PAECs (5×10^3 cells per well) were plated in a 96-well plate and treated with DMSO or MC1568. Cell proliferation was measured by a colorimetric kit for determining cell viability (CellTiter 96 AQueous One Solution Cell Proliferation Assay, Promega) per manufacturer's protocol.

PAH PAECs [4] = assay: PAH PAEC migration assay; assay type: cell-based, human; conditions: 1 μM
Procedure: PAECs were grown to post-confluence in 24-well plates, and then subjected to injury using a plastic pipette tip. They were then treated with vehicle or MC1568 (1 μM). The cells were allowed to migrate for 8 h, and the gap distance was calculated in at least five randomly selected microscopic fields per each sample.

[5] = test system: rats with experimental pulmonary hypertension; assay: Experimental pulmonary hypertension models in rats (MCT and SU-5416/hypoxia): hemodynamic, morphometric and cardiac analyses; assay type: in vivo, rat; conditions: for right ventricular hypertrophy (right ventricle to left ventricle plus septum weight ratios): SU5416/hypoxia, vs. control; for right ventricular systolic pressures: SU-5416/hypoxia, vs. DMSO
Procedure: Rat lung tissues were fixed and stained as previously described (Nature medicine 19, 74-82 (2013)). Standard methods (Trichrome Stain, Sigma) were used to stain for collagen in cardiac sections.
(§2) Male Sprague Dawley rats (200-250 g; Charles River Laboratories) were subcutaneously injected with monocrotaline (Sigma) (60 mg per kg body weight) for the MCT model. For the SUGEN model, SU-5416 (Sigma) was resuspended in DMSO (Sigma) and injected subcutaneously (20 mg per kg body weight). Rats were subsequently exposed to hypoxia (10% FiO2) for 2 weeks. Rats were given intraperitoneal administration of either the vehicle (DMSO), MC1568 (Sellek Chemicals and DC Chemicals) (50 mg per kg body weight), TMP269 (DC Chemicals) (intraperitoneal injection of 50 mg/kg/day for two weeks), or Tasquinimod (DC Chemicals) (oral gavage of 10 mg/kg/day for two weeks) daily as indicated (FIG. 13).
Right ventricular systolic pressure (RVSP) measurements were performed at the designated time points under isoflurane by inserting a catheter (Millar Instruments) into the right jugular vein as described previously.^21 Lungs were perfused with normal saline and fixed in 4% paraformaldehyde overnight for immunohistochemistry or snap frozen in liquid nitrogen for protein and RNA analyses. Hearts were dissected and weighed for calculation of the right ventricle to the left ventricle plus septum weight ratio. The same full section in the midportion of the left lung parallel to the hilum was used and embedded in the same manner for lung morphometric analyses. Pulmonary artery muscularization was assessed at ×200 magnification after staining for vWF and SMA by calculating the ratio of the number of muscularized peripheral pulmonary arteries to the number of total peripheral pulmonary arteries (with diameters less than 75 μm) in five random fields per lung (with each field at ×200 magnification). The total number of vessels less than 75 μm was expressed as the number of vessels counted per random microscope field (five random fields per lung at ×200 magnification). Pulmonary arteries with proliferating cells were assessed in PCNA stained lung sections. Vessels with one or more PCNA staining cell were considered to be PNCA positive. All measurements were carried out by investigators blinded to the experimental condition.

[6] = test system: MEF2 transcriptional targets (Cx37, Cx40 and KLF2); assay: MEF2 transcriptional target expression in PH model rats; assay type: in vivo, rat; conditions: PH models, MC1568 50 mg per kg intraperitoneal daily, vs. DMSO
Procedure: Total RNA was extracted with an RNA isolation kit, (miRNeasy RNA, Qiagen). Purified RNA was reverse transcribed with a cDNA synthesis kit (iScript cDNA Synthesis Kit, Bio-Rad). RT-PCR was performed with TaqMan probes for both genes and miRNAs (Applied Biosystems). All miRNA data were normalized to the internal control small RNAs RNU19 and HY3 for human samples and U87 for rat samples. For the mRNA samples, ribosomal 18S was used as an internal control. Individual RT-PCRs were performed on a CFX96 (Bio-Rad) according to the manufacturer's instructions. […]
Right ventricular systolic pressure (RVSP) measurements were performed at the designated time points under isoflurane by inserting a catheter (Millar Instruments) into the right jugular vein as described previously.^21 Lungs were perfused with normal saline and fixed in 4% paraformaldehyde overnight for immunohistochemistry or snap frozen in liquid nitrogen for protein and RNA analyses. […] Pulmonary artery muscularization was assessed at ×200 magnification after staining for vWF and SMA by calculating the ratio of the number of muscularized peripheral pulmonary arteries to the number of total peripheral pulmonary arteries (with diameters less than 75 μm) in five random fields per lung (with each field at ×200 magnification). […] Pulmonary arteries with proliferating cells were assessed in PCNA stained lung sections. […]

FGF2 [7] = assay: FGF2 expression in lungs of PH model rats; assay type: in vivo, rat; conditions: two PH models, lung homogenates, MC1568 50 mg per kg intraperitoneal daily
Procedure: as §2
Right ventricular systolic pressure (RVSP) measurements were performed at the designated time points under isoflurane by inserting a catheter (Millar Instruments) into the right jugular vein as described previously.^21 Lungs were perfused with normal saline and fixed in 4% paraformaldehyde overnight for immunohistochemistry or snap frozen in liquid nitrogen for protein and RNA analyses. […] The total number of vessels less than 75 μm was expressed as the number of vessels counted per random microscope field (five random fields per lung at ×200 magnification). Pulmonary arteries with proliferating cells were assessed in PCNA stained lung sections. […]

[8] = test system: human coronary artery endothelial cells; assay: Caspase 3 cleavage in human coronary artery endothelial cells; assay type: cell-based
HDAC4 [9] = molecular target: T1, HDAC4 (Homo sapiens, UniProt P56524); assay: HDAC4 degradation in PAECs from a PAH patient (western blot); assay type: cell-based; conditions: 1 μM for 24 hr
T1 construct: phosphorylation of endogenously expressed HDAC4 and HDAC5; endogenous in cells; host or cells: PAECs from PAH patient(s)
T1 sequence (P56524 whole entry): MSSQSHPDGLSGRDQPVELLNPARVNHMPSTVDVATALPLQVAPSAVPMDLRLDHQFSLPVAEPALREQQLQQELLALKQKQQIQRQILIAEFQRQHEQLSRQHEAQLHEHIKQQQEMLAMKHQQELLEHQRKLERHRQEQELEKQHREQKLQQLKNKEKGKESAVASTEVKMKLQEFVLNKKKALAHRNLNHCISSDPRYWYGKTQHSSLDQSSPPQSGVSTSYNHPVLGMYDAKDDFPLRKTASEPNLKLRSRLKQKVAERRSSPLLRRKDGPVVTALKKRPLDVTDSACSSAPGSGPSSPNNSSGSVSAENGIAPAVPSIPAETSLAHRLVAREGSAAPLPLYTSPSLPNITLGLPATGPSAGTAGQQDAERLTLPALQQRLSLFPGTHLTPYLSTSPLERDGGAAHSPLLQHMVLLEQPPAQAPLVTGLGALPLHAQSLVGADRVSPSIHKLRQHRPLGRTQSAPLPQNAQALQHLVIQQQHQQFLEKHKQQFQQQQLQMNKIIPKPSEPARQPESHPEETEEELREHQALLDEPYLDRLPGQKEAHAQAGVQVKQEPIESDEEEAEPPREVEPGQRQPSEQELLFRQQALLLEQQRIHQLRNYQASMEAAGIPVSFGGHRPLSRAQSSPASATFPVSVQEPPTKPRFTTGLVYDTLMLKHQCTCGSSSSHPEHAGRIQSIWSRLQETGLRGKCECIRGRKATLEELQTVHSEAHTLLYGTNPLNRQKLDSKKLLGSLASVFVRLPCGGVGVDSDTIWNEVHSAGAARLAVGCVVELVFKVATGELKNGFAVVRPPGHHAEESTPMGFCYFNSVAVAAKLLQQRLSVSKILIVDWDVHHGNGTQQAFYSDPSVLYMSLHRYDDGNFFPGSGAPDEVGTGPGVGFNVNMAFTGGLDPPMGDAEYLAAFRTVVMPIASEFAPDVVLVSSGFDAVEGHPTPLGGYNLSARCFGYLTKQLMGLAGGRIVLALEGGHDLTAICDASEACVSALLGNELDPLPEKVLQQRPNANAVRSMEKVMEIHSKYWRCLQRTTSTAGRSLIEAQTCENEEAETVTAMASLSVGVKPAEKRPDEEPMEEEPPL

HDAC5 [10] = molecular target: T2, HDAC5 (Homo sapiens, UniProt Q9UQL6); assay: HDAC5 degradation in PAECs from a PAH patient (western blot); assay type: cell-based; conditions: 1 μM for 24 hr
T2 construct: phosphorylation of endogenously expressed HDAC4 and HDAC5; endogenous in cells; host or cells: PAECs from PAH patient(s)
T2 sequence (Q9UQL6 whole entry): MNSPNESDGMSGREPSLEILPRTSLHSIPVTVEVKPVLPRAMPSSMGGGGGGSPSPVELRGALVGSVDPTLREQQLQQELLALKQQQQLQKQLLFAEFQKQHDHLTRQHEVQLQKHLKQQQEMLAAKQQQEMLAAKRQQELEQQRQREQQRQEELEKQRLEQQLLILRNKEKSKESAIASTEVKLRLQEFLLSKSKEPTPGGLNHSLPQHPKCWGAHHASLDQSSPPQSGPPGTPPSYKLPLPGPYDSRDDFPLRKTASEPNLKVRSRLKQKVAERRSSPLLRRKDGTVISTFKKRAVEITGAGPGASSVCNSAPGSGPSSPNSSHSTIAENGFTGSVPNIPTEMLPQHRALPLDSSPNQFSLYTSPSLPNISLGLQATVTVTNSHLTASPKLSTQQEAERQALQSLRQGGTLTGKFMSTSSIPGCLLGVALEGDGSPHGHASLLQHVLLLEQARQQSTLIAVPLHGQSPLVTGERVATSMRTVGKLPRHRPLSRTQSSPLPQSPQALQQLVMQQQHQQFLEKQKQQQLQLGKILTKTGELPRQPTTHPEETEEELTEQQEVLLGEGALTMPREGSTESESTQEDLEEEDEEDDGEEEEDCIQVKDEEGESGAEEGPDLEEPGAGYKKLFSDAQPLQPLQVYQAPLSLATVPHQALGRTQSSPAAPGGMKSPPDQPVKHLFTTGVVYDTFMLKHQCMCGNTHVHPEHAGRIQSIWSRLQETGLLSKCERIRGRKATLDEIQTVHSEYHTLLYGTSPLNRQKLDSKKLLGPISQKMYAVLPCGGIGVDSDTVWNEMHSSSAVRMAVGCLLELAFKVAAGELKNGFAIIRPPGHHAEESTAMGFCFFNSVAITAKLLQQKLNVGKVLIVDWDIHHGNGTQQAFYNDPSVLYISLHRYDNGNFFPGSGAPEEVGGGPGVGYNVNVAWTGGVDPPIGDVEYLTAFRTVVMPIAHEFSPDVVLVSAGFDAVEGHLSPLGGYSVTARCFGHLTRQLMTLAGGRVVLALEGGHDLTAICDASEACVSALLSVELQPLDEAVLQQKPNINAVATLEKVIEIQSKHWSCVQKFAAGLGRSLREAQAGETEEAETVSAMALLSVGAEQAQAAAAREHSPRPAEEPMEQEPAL

class IIa HDACs = conditions: cited from earlier work
[11] = pulmonary artery banding, previous study; cited from earlier work
MEF2 = conditions: PAH PAECs, apelin 1 μM for 24 h
Procedure: Either control PAECs or PAH PAECs were transfected and lysed in lysis buffer (Promega). Renilla luciferase was used for normalization. Dual Luciferase Reporter System (Promega) was used according to the manufacturer's protocol. All experiments were performed three times in triplicates.

HDAC4-GFP = conditions: PAH PAECs, apelin 1 μM for 1 h
Procedure: (§3) For the apelin effect on HDAC4/5 translocation, PAECs plated on glass bottom culture dish (Mat-Tek) were transfected with GFP-tagged HDAC4 and HDAC5 expression vectors for 24 hours. Cells were imaged using a Nikon Eclipse Ti confocal microscopy before and after treatment with apelin 13 (1 μM for 1 h at 37° C.).

HDAC5-GFP = conditions: PAH PAECs, apelin 1 μM for 1 h
Procedure: as §3

HDAC4 [12] = conditions: PAH PAECs, apelin 1 μM for 1 h
Procedure: (§4) Western blotting was performed as previously described (eriosclerosis, thrombosis, and vascular biology 31, 814-820 (2011)). Each western blot is representative of three independent experiments done in triplicate. For the generation of cell lysates, lysis buffer (RIPA, Thermo Scientific) containing a protease and phosphatase inhibitor cocktail (Halt Protease and Phosphatase Inhibitor, Thermo Scientific) was used. Protein contents were measured using a detergent-compatible protein concentration assay (DC™ assay, Bio-Rad).

HDAC5 [13] = conditions: PAH PAECs, apelin 1 μM for 1 h
Procedure: as §4

[14] = MCT and SUGEN models, MC1568 50 mg per kg intraperitoneal daily, vs. vehicle (DMSO)
[15] = TMP269 intraperitoneal 50 mg/kg/day for two weeks
[16] = Tasquinimod oral gavage 10 mg/kg/day for two weeks

Question: Which results are given for `Cn1c(/C=C/C(=O)NO)ccc1/C=C/C(=O)c1cccc(F)c1` [MC1568, (E)-3-(5-((E)-3-(3-fluorophenyl)-3-oxoprop-1-en-1-yl)-1-methyl-1H-pyrrol-2-yl)-N-hydroxyacrylamide]?
Answer: expression of Cx37, Cx40, and KLF2 [1]: significant increased expression; expression of FGF2 (FGF2 [2]): significant downregulation; PAH PAEC proliferation (PAH PAECs [3]): significant reduction; PAH PAEC migration (PAH PAECs [4]): significant reduction; myocardial fibrosis (trichrome staining of right ventricle, gross histology) ([5]; MCT and SUGEN groups, MC1568): no evidence of myocardial fibrosis; muscularization of small arterioles [5, 14]: significantly decreased; right ventricle to left ventricle+septum weight ratios [5, 14]: significant reduction; right ventricular systolic pressures (RVSP) [5, 14]: significant decrease; PCNA-positive proliferating vascular cells ([5]; MCT and SUGEN models, lungs, MC1568 50 mg per kg intraperitoneal daily, vs. control groups): significantly fewer; MEF2 transcriptional targets (Cx37, Cx40 and KLF2) expression [6]: increased; expression of FGF2 in the lungs (FGF2 [7]): significantly decreased; cellular apoptosis as assessed by caspase 3 cleavage [8]: did not result in caspase activation; degradation of HDAC4 (HDAC4 [9]): degradation; degradation of HDAC5 (HDAC5 [10]): degradation; selectivity for class IIa HDACs over other HDAC classes (class IIa HDACs): selective inhibition of class IIa HDACs, without affecting other HDAC classes

Question: For `O=C(NCC1(c2nc(-c3ccccc3)cs2)CCOCC1)c1cccc(-c2noc(C(F)(F)F)n2)c1` [TMP269, N-((4-(4-phenylthiazol-2-yl)tetrahydro-2H-pyran-4-yl)methyl)-3-(5-(trifluoromethyl)-1,2,4-oxadiazol-3-yl)benzamide], which “expression of Cx37, Cx40, and KLF2” value [1] is on record?
Answer: The value was “significantly increased”.

Question: What about the “PAH PAEC migration” value (PAH PAECs [4]) of the same compound?
Answer: Its value is “inhibited”.

Question: What about the “right ventricular hypertrophy (right ventricle to left ventricle plus septum weight ratios)” value [5, 15] of the same compound?
Answer: Its value is “decreased”.

Question: And the “right ventricular systolic pressures” value [5, 15]?
Answer: Its value is “significantly reduced”.

Question: What about the “degradation of HDAC4” value (HDAC4 [9]) of the same compound?
Answer: The value was “degradation”.

Question: What about the “degradation of HDAC5” value (HDAC5 [10]) of the same compound?
Answer: The value was “degradation”.

Question: Which “cellular apoptosis as assessed by caspase 3 cleavage” value [8] does the source give for `CC(/C=C/C(=O)NO)=C\[C@@H](C)C(=O)c1ccc(N(C)C)cc1` [TSA, trichostatin A] here?
Answer: The value was “marked induction of cellular apoptosis”.

Question: What about the “effect on the right ventricle” value [11] of the same compound?
Answer: The value was “detrimental injury to the right ventricle”.

Question: With `COc1cccc2c1c(O)c(C(=O)N(C)c1ccc(C(F)(F)F)cc1)c(=O)n2C` [Tasquinimod, 4-hydroxy-5-methoxy-N,1-dimethyl-2-oxo-N-[4-(trifluoromethyl)phenyl]-1,2-dihydroquinoline-3-carboxamide] as the compound, how does the “right ventricular hypertrophy (right ventricle to left ventricle plus septum weight ratios)” value [5, 16] read?
Answer: Its value is “decreased”.

Question: What about the “right ventricular systolic pressures” value [5, 16] of the same compound?
Answer: The value was “significantly reduced”.

Question: For `CCCC(CCC)C(=O)O` [valproic acid], which “effect on the right ventricle” value [11] is on record?
Answer: Its value is “detrimental injury to the right ventricle”.

Question: For apelin, which MEF2 reporter activity (MEF2) is on record?
Answer: Its MEF2 reporter activity is “significant augmentation”.

Question: What about the “cytoplasmic translocation of HDAC4-GFP” value (HDAC4-GFP) of the same compound?
Answer: Its value is “robust cytoplasmic translocation”.

Question: What about the “cytoplasmic translocation of HDAC5-GFP” value (HDAC5-GFP) of the same compound?
Answer: The value was “robust cytoplasmic translocation”.

Question: What about the “phosphorylation of HDAC4” value (HDAC4 [12]) of the same compound?
Answer: Its value is “marked increase in phosphorylation”.

Question: And the “phosphorylation of HDAC5” value (HDAC5 [13])?
Answer: Its value is “marked increase in phosphorylation”.
